In patent publication US6737383B1, “Herbicidal oxadiazolidines” (priority 1999, dated 2004):

Columns and labels:
blackgrass = experiment: Test B pre/postemergence blackgrass; type: in vivo, Alopecurus myosuroides
Outline: (§1)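 Test chemicals in a non-phytotoxic solvent mixture with surfactant were sprayed preemergence onto planted seeds and postemergence onto plants 2 to 18 cm tall (1- to 4-leaf stage). After twelve to sixteen days in a greenhouse, injury was visually rated against untreated controls from 0 (no effect) to 10 (complete control).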

purple nutsedge = experiment: Test B pre/postemergence purple nutsedge; type: in vivo, Cyperus rotundus
Outline: as §1

soybean = experiment: Test B pre/postemergence soybean; type: in vivo, Glycine max
Outline: as §1

surinam grass = experiment: Test B pre/postemergence surinam grass; type: in vivo, Brachiaria decumbens
Outline: as §1

bedstraw = experiment: Test B pre/postemergence bedstraw; type: in vivo, Galium aparine
Outline: as §1

rice = experiment: Test B flood test rice; type: in vivo, Oryza sativa
Outline: (§2)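 Flood test on plants grown to the 2-leaf stage; treated plants kept in greenhouse twelve to sixteen days, then visually rated against controls on a 0 (no effect) to 10 (complete control) scale.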

morningglory = experiment: Test B pre/postemergence morningglory; type: in vivo, Ipomoea hederacea
Outline: as §1

wheat = experiment: Test B pre/postemergence wheat; type: in vivo, Triticum aestivum
Outline: as §1

velvetleaf = experiment: Test B pre/postemergence velvetleaf; type: in vivo, Abutilon theophrasti
Outline: as §1

crabgrass = experiment: Test B pre/postemergence crabgrass; type: in vivo, Digitaria sanguinalis
Outline: as §1

duck salad = experiment: Test B flood test duck salad; type: in vivo, Heteranthera limosa
Outline: as §2

wild oat = experiment: Test B pre/postemergence wild oat; type: in vivo, Avena fatua
Outline: as §1

smallflower flatsedge = experiment: Test B flood test smallflower flatsedge; type: in vivo, Cyperus difformis
Outline: as §2

pigweed = experiment: Test B pre/postemergence pigweed; type: in vivo, Amaranthus retroflexus
Outline: as §1

corn = experiment: Test B pre/postemergence corn; type: in vivo, Zea mays
Outline: as §1

giant foxtail = experiment: Test B pre/postemergence giant foxtail; type: in vivo, Setaria faberii
Outline: as §1

[1] = Postemergence, Rate 62 g/ha, scale 0 to 10, 0 is no effect, 10 is complete control
[2] = Postemergence, Rate 250 g/ha, scale 0 to 10, 0 no effect, 10 complete control
[3] = Preemergence, Rate 62 g/ha, scale 0 to 10 (0 no effect, 10 complete control)
[4] = Preemergence, Rate 125 g/ha, scale 0 to 10 (0 no effect, 10 complete control)
[5] = Preemergence, Rate 250 g/ha, scale of 0 to 10 where 0 is no effect and 10 is complete control
[6] = Preemergence, Rate 500 g/ha, scale 0 (no effect) to 10 (complete control)
[7] = Rate 125 g/ha, Postemergence, scale 0 to 10, 0 no effect, 10 complete control
[8] = Rate 500 g/ha, Postemergence, scale 0 to 10, 0 no effect, 10 complete control
[9] = Rate 125 g/ha, Postemergence section (flood test species), scale 0 to 10, 0 no effect, 10 complete control
[10] = Rate 500 g/ha, listed under Postemergence (flood test species), scale 0 to 10, 0 no effect, 10 complete control
[11] = flood test, listed under Postemergence, Rate 250 g/ha, scale 0 to 10, 0 no effect, 10 complete control

Cc1cc(C)c(-n2c(=O)on(C(=O)N(c3ccc(F)cc3)C(C)C)c2=O)c(C)c1 [Compound 60]
Blackgrass plant response rating (blackgrass; [1]): 0
Blackgrass plant response rating (blackgrass; [2]): 0
Blackgrass plant response rating (blackgrass; [3]): 0
Plant response rating, Blackgrass (blackgrass; [4]): 0
Plant response rating, Blackgrass (blackgrass; [5]): 0
Blackgrass plant response rating (blackgrass; [6]): 0
Blackgrass plant response rating (blackgrass; [7]): 0
Blackgrass plant response rating (blackgrass; [8]): 0
Nutsedge plant response rating (purple nutsedge; [1]): 0
Nutsedge plant response rating (purple nutsedge; [2]): 0
Nutsedge plant response rating (purple nutsedge; [3]): 0
Plant response rating, Nutsedge (purple nutsedge; [4]): 0
Plant response rating, Nutsedge (purple nutsedge; [5]): 0
Nutsedge plant response rating (purple nutsedge; [6]): 0
Nutsedge plant response rating (purple nutsedge; [7]): 0
Nutsedge plant response rating (purple nutsedge; [8]): 0
Soybean plant response rating (soybean; [1]): 2
Soybean plant response rating (soybean; [2]): 3
Soybean plant response rating (soybean; [3]): 0
Plant response rating, Soybean (soybean; [4]): 0
Plant response rating, Soybean (soybean; [5]): 0
Soybean plant response rating (soybean; [6]): 0
Soybean plant response rating (soybean; [7]): 3
Soybean plant response rating (soybean; [8]): 3
B. signalgrass plant response rating (surinam grass; [1]): 0
B. signalgrass plant response rating (surinam grass; [2]): 0
B. signalgrass plant response rating (surinam grass; [3]): 0
Plant response rating, B. signalgrass (surinam grass; [4]): 0
Plant response rating, B. signalgrass (surinam grass; [5]): 0
B. signalgrass plant response rating (surinam grass; [6]): 0
B. signalgrass plant response rating (surinam grass; [7]): 0
B. signalgrass plant response rating (surinam grass; Rate 500 g/ha, Postemergence, scale of 0 to 10 where 0 is no effect and 10 is complete control): 0
Bedstraw plant response rating (bedstraw; [2]): 7
Bedstraw plant response rating (bedstraw; [3]): 0
Plant response rating, Bedstraw (bedstraw; [4]): 0
Plant response rating, Bedstraw (bedstraw; [5]): 0
Bedstraw plant response rating (bedstraw; [6]): 5
Bedstraw plant response rating (bedstraw; [7]): 7
Bedstraw plant response rating (bedstraw; [8]): 7
Rice plant response rating (rice; [1]): 0
Rice plant response rating (rice; [9]): 0
Rice plant response rating (rice; [10]): 0
Rice plant response rating (rice; [11]): 0
Morningglory plant response rating (morningglory; [1]): 1
Morningglory plant response rating (morningglory; [2]): 2
Morningglory plant response rating (morningglory; [3]): 0
Plant response rating, Morningglory (morningglory; [4]): 0
Plant response rating, Morningglory (morningglory; [5]): 0
Morningglory plant response rating (morningglory; [6]): 0
Morningglory plant response rating (morningglory; [7]): 2
Morningglory plant response rating (morningglory; [8]): 2
Wheat plant response rating (wheat; [1]): 0
Wheat plant response rating (wheat; [2]): 0
Wheat plant response rating (wheat; [3]): 0
Plant response rating, Wheat (wheat; [4]): 0
Plant response rating, Wheat (wheat; [5]): 0
Wheat plant response rating (wheat; [6]): 0
Wheat plant response rating (wheat; [7]): 0
Wheat plant response rating (wheat; [8]): 0
Velvetleaf plant response rating (velvetleaf; [1]): 0
Velvetleaf plant response rating (velvetleaf; [2]): 0
Velvetleaf plant response rating (velvetleaf; [3]): 0
Plant response rating, Velvetleaf (velvetleaf; [4]): 0
Plant response rating, Velvetleaf (velvetleaf; [5]): 0
Velvetleaf plant response rating (velvetleaf; [6]): 0
Velvetleaf plant response rating (velvetleaf; [7]): 0
Velvetleaf plant response rating (velvetleaf; [8]): 0
Crabgrass plant response rating (crabgrass; [1]): 0
Crabgrass plant response rating (crabgrass; [2]): 1
Crabgrass plant response rating (crabgrass; [3]): 0
Plant response rating, Crabgrass (crabgrass; [4]): 1
Plant response rating, Crabgrass (crabgrass; [5]): 1
Crabgrass plant response rating (crabgrass; [6]): 1
Crabgrass plant response rating (crabgrass; [7]): 0
Crabgrass plant response rating (crabgrass; [8]): 2
Ducksalad plant response rating (duck salad; [1]): 0
Ducksalad plant response rating (duck salad; [9]): 0
Ducksalad plant response rating (duck salad; [10]): 0
Ducksalad plant response rating (duck salad; [11]): 0
Wild oats plant response rating (wild oat; [1]): 0
Wild oats plant response rating (wild oat; [2]): 0
Wild oats plant response rating (wild oat; [3]): 0
Plant response rating, Wild oats (wild oat; [4]): 0
Plant response rating, Wild oats (wild oat; [5]): 0
Wild oats plant response rating (wild oat; [6]): 0
Wild oats plant response rating (wild oat; [7]): 0
Wild oats plant response rating (wild oat; [8]): 0
S. Flatsedge plant response rating (smallflower flatsedge; [1]): 0
S. Flatsedge plant response rating (smallflower flatsedge; [9]): 0
S. Flatsedge plant response rating (smallflower flatsedge; [10]): 0
S. Flatsedge plant response rating (smallflower flatsedge; [11]): 0
Redroot pigweed plant response rating (pigweed; [1]): 2
Redroot pigweed plant response rating (pigweed; [2]): 4
Redroot pigweed plant response rating (pigweed; [3]): 0
Plant response rating, Redroot pigweed (pigweed; [4]): 0
Plant response rating, Redroot pigweed (pigweed; [5]): 0
Redroot pigweed plant response rating (pigweed; [6]): 0
Redroot pigweed plant response rating (pigweed; [7]): 4
Redroot pigweed plant response rating (pigweed; [8]): 6
Corn plant response rating (corn; [1]): 0
Corn plant response rating (corn; [2]): 0
Corn plant response rating (corn; [3]): 0
Plant response rating, Corn (corn; [4]): 0
Plant response rating, Corn (corn; [5]): 0
Corn plant response rating (corn; [6]): 0
Corn plant response rating (corn; [7]): 0
Corn plant response rating (corn; [8]): 0
Giant foxtail plant response rating (giant foxtail; [1]): 0
Giant foxtail plant response rating (giant foxtail; [2]): 0
Giant foxtail plant response rating (giant foxtail; [3]): 3
Plant response rating, Giant foxtail (giant foxtail; [4]): 3
Plant response rating, Giant foxtail (giant foxtail; [5]): 4
Giant foxtail plant response rating (giant foxtail; [6]): 5
Giant foxtail plant response rating (giant foxtail; [7]): 0
Giant foxtail plant response rating (giant foxtail; [8]): 0
